One test has as its target Recombinant human cathepsin S (CatS) (Homo sapiens, UniProt P25774). The test can be described thus: Recombinant human cathepsin S (CatS) inhibition assay, fluorogenic substrate Z-Valine-Valine-Arginine-AMC.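 Further: Baculovirus-expressed CatS in pH 5.0 sodium acetate buffer with DTT and NaCl, fluorescence read each minute over 20 min, inhibition derived from rate slope.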
Details: not given
Chain of Recombinant human cathepsin S (CatS) (P25774 115-331): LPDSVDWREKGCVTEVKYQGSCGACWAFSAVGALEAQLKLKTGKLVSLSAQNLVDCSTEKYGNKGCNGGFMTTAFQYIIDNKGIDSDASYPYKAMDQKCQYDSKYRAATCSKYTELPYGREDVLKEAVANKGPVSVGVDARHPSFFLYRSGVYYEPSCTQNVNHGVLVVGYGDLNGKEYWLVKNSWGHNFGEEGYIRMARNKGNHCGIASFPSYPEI
As for `CS(=O)(=O)N1CCc2c(c(-c3ccc(Cl)c(CCCNS(=O)(=O)c4ccccc4Cl)c3)nn2CCCN2CCC(N3CCCC3=O)CC2)C1` [Example 95, 2-Chloro-N-{3-[2-chloro-5-(5-methanesulfonyl-1-{3-[4-(2-oxo-pyrrolidin-1-yl)-piperidin-1-yl]-propyl}-4,5,6,7-tetrahydro-1H-pyrazolo[4,3-c]pyridin-3-yl)-phenyl]-propyl}-benzenesulfonamide], the IC50 is 1150 nM.

Turning to `CS(=O)(=O)N1CCc2c(c(-c3ccc(Cl)c(CCCNS(=O)(=O)c4cccc([N+](=O)[O-])c4)c3)nn2CCCN2CCC(N3CCCC3=O)CC2)C1` [Example 96, N-{3-[2-Chloro-5-(5-methanesulfonyl-1-{3-[4-(2-oxo-pyrrolidin-1-yl)-piperidin-1-yl]-propyl}-4,5,6,7-tetrahydro-1H-pyrazolo[4,3-c]pyridin-3-yl)-phenyl]-propyl}-3-nitro-benzenesulfonamide], the IC50 came out at 1200 nM.

`Cc1cccc(S(=O)(=O)NCCCc2cc(-c3nn(CCCN4CCC(N5CCCC5=O)CC4)c4c3CN(S(C)(=O)=O)CC4)ccc2Cl)c1` [Example 97, N-{3-[2-Chloro-5-(5-methanesulfonyl-1-{3-[4-(2-oxo-pyrrolidin-1-yl)-piperidin-1-yl]-propyl}-4,5,6,7-tetrahydro-1H-pyrazolo[4,3-c]pyridin-3-yl)-phenyl]-propyl}-3-methyl-benzenesulfonamide]: the IC50 was 1310 nM.

In the case of `CS(=O)(=O)N1CCc2c(c(-c3ccc(Cl)c(CCCNS(=O)(=O)c4cccc(C#N)c4)c3)nn2CCCN2CCC(N3CCCC3=O)CC2)C1` [Example 98, N-{3-[2-Chloro-5-(5-methanesulfonyl-1-{3-[4-(2-oxo-pyrrolidin-1-yl)-piperidin-1-yl]-propyl}-4,5,6,7-tetrahydro-1H-pyrazolo[4,3-c]pyridin-3-yl)-phenyl]-propyl}-3-cyano-benzenesulfonamide], the IC50 worked out at 1410 nM.

For `CS(=O)(=O)c1cccc(S(=O)(=O)NCCCc2cc(-c3nn(CCCN4CCC(N5CCCC5=O)CC4)c4c3CN(S(C)(=O)=O)CC4)ccc2Cl)c1` [Example 99, N-{3-[2-Chloro-5-(5-methanesulfonyl-1-{3-[4-(2-oxo-pyrrolidin-1-yl)-piperidin-1-yl]-propyl}-4,5,6,7-tetrahydro-1H-pyrazolo[4,3-c]pyridin-3-yl)-phenyl]-propyl}-3-methanesulfonyl-benzenesulfonamide], the IC50 amounted to 2450 nM.

Turning to `CS(=O)(=O)c1ccccc1S(=O)(=O)NCCCc1cc(-c2nn(CCCN3CCC(N4CCCC4=O)CC3)c3c2CN(S(C)(=O)=O)CC3)ccc1Cl` [Example 100, N-{3-[2-Chloro-5-(5-methanesulfonyl-1-{3-[4-(2-oxo-pyrrolidin-1-yl)-piperidin-1-yl]-propyl}-4,5,6,7-tetrahydro-1H-pyrazolo[4,3-c]pyridin-3-yl)-phenyl]-propyl}-2-methanesulfonyl-benzenesulfonamide], the half-inhibitory concentration (IC50) is 2500 nM.

On to `CS(=O)(=O)N1CCc2c(c(-c3ccc(Cl)c(CCCN4CCCC4)c3)nn2CCCN2CCC(N3CCCC3=O)CC2)C1` [Example 101, 1-[1-(3-{3-[4-Chloro-3-(3-pyrrolidin-1-yl-propyl)-phenyl]-5-methanesulfonyl-4,5,6,7-tetrahydro-pyrazolo[4,3-c]pyridin-1-yl}-propyl)-piperidin-4-yl]-pyrrolidin-2-one], for which the IC50 stood at 2060 nM.

For `CS(=O)(=O)N1CCc2c(c(-c3ccc(Cl)c(CCCN4CCCCC4)c3)nn2CCCN2CCC(N3CCCC3=O)CC2)C1` [Example 102, 1-[1-(3-{3-[4-Chloro-3-(3-piperidin-1-yl-propyl)-phenyl]-5-methanesulfonyl-4,5,6,7-tetrahydro-pyrazolo[4,3-c]pyridin-1-yl}-propyl)-piperidin-4-yl]-pyrrolidin-2-one], the IC50 is 840 nM.

For `CC1CCCN(CCCc2cc(-c3nn(CCCN4CCC(N5CCCC5=O)CC4)c4c3CN(S(C)(=O)=O)CC4)ccc2Cl)C1` (stereo not shown) [Example 103, 1-{1-[3-(3-{4-Chloro-3-[3-(3-methyl-piperidin-1-yl)-propyl]-phenyl}-5-methanesulfonyl-4,5,6,7-tetrahydro-pyrazolo[4,3-c]pyridin-1-yl)-propyl]-piperidin-4-yl}-pyrrolidin-2-one], the IC50 is 310 nM.

For the molecule `CS(=O)(=O)N1CCc2c(c(-c3ccc(Cl)c(CCCN4CCOCC4)c3)nn2CCCN2CCC(N3CCCC3=O)CC2)C1` [Example 105, 1-[1-(3-{3-[4-Chloro-3-(3-morpholin-4-yl-propyl)-phenyl]-5-methanesulfonyl-4,5,6,7-tetrahydro-pyrazolo[4,3-c]pyridin-1-yl}-propyl)-piperidin-4-yl]-pyrrolidin-2-one], the IC50 is 1430 nM.

Take `CN1CCN(CCCc2cc(-c3nn(CCCN4CCC(N5CCCC5=O)CC4)c4c3CN(S(C)(=O)=O)CC4)ccc2Cl)CC1` [Example 106, 1-{1-[3-(3-{4-Chloro-3-[3-(4-methyl-piperazin-1-yl)-propyl]-phenyl}-5-methanesulfonyl-4,5,6,7-tetrahydro-pyrazolo[4,3-c]pyridin-1-yl)-propyl]-piperidin-4-yl}-pyrrolidin-2-one]: the IC50 amounted to 4420 nM.

In the case of `CS(=O)(=O)N1CCc2c(c(-c3ccc(Cl)c(CCCN4CCCCCC4)c3)nn2CCCN2CCC(N3CCCC3=O)CC2)C1` [Example 107, 1-[1-(3-{3-[3-(3-Azepan-1-yl-propyl)-4-chloro-phenyl]-5-methanesulfonyl-4,5,6,7-tetrahydro-pyrazolo[4,3-c]pyridin-1-yl}-propyl)-piperidin-4-yl]-pyrrolidin-2-one], the IC50 came to 500 nM.

As for `CS(=O)(=O)N1CCc2c(c(-c3ccc(Cl)c(CCCNC4CCCC4)c3)nn2CCCN2CCC(N3CCCC3=O)CC2)C1` [Example 108, 1-[1-(3-{3-[4-Chloro-3-(3-cyclopentylamino-propyl)-phenyl]-5-methanesulfonyl-4,5,6,7-tetrahydro-pyrazolo[4,3-c]pyridin-1-yl}-propyl)-piperidin-4-yl]-pyrrolidin-2-one], the IC50 came to 660 nM.

For the molecule `CS(=O)(=O)N1CCc2c(c(-c3ccc(Cl)c(CCCCN4CCCC4)c3)nn2CCCN2CCC(N3CCCC3=O)CC2)C1` [Example 109, 1-[1-(3-{3-[4-Chloro-3-(4-pyrrolidin-1-yl-butyl)-phenyl]-5-methanesulfonyl-4,5,6,7-tetrahydro-pyrazolo[4,3-c]pyridin-1-yl}-propyl)-piperidin-4-yl]-pyrrolidin-2-one], the IC50 was 2270 nM.

On to `CS(=O)(=O)N1CCc2c(c(-c3ccc(Cl)c(CCCCN4CCCCC4)c3)nn2CCCN2CCC(N3CCCC3=O)CC2)C1` [Example 110, 1-[1-(3-{3-[4-Chloro-3-(4-piperidin-1-yl-butyl)-phenyl]-5-methanesulfonyl-4,5,6,7-tetrahydro-pyrazolo[4,3-c]pyridin-1-yl}-propyl)-piperidin-4-yl]-pyrrolidin-2-one], for which the IC50 turned out to be 3030 nM.

The same test, now with this note: CatS IC50.
Regarding `CS(=O)(=O)N1CCc2c(c(-c3ccc(Cl)c(CCCN4CCC(F)(F)CC4)c3)nn2CCCN2CCC(N3CCCC3=O)CC2)C1` [Example 104, 1-{1-[3-(3-{4-Chloro-3-[3-(4,4-difluoro-piperidin-1-yl)-propyl]-phenyl}-5-methanesulfonyl-4,5,6,7-tetrahydro-pyrazolo[4,3-c]pyridin-1-yl)-propyl]-piperidin-4-yl}-pyrrolidin-2-one], the IC50 worked out at 930 nM.

In general, IC50 refers to the concentration at which inhibition is half-maximal.

The values are drawn from patent US20080200454A1, “CARBON-LINKED TETRAHYDRO-PYRAZOLO-PYRIDINE MODULATORS OF CATHEPSIN S” (priority 2007, published 2008).
